Experimental data reported in PubChem BioAssay AID2376 (NMMLSC, 2010).

Biological target: Cell division control protein 42 homolog (Homo sapiens) (UniProt P60953)
Assay: Cdc42 GTP-binding inhibition at fixed GTP, dose response, mechanism study for Ras-family GTPase inhibitor project, biochemical, nucleotide-depleted protein, Mg buffer, constant GTP (AID 2376)
Details: GST-Cdc42 beads, BODIPY-GTP binding, flow cytometry

Cell division control protein 42 homolog (Homo sapiens), sequence (P60953 whole entry, looked up): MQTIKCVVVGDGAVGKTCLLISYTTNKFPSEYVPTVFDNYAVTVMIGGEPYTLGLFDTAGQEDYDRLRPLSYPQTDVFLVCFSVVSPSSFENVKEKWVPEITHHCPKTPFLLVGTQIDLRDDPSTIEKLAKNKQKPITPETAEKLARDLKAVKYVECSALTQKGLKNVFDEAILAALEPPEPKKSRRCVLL

EC50: 0.263 µM
Structure (SMILES): COc1ccc(C2CC(c3ccccc3)=NN2c2ccc(S(N)(=O)=O)cc2)cc1 (stereo unspecified)
